Structures can show the parent of a compound that is named as a salt.
What was measured:
[1] = biological target: T1, MAPKAPK2 enzyme (HIS-MK2, Invitrogen PV4019) (Homo sapiens, UniProt P49137); assay: Alternative MAPKAPK2 assay (Caliper microfluidic mobility shift, HSP27-peptide); type: biochemical; conditions: HIS-MK2 0.013 nM, ATP 10 μM, 60 min at 30° C.
T1 construct: His; purchased Invitrogen PV4019

human MK2 = human MK2 (Homo sapiens, UniProt P49137); assay: MAPKAPK2 kinase assay (TR-FRET, Hsp27 peptide substrate)
Sequence of human MK2 (P49137 whole entry): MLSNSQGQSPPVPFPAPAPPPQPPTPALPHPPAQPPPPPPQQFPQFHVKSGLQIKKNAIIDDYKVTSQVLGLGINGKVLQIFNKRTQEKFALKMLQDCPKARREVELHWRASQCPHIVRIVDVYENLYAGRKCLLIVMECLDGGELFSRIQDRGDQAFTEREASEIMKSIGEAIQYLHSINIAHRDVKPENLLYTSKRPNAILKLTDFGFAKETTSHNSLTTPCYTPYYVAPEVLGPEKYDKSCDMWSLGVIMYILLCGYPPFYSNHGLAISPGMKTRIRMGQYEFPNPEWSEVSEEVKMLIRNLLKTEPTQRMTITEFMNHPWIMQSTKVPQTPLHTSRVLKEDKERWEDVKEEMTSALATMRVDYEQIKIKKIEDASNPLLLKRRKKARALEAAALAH

T1 sequence (P49137 whole entry): as above

Row | SMILES | IC50 [1] | IC50 (human MK2)
1 | CN(C)CCOc1cc(-c2cc3c(cn2)CCc2c-3[nH]c3c2C(=O)NCC32CC2)ccc1F [Example 311, 2-[3-(2-Dimethylamino-ethoxy)-4-fluoro-phenyl]-10-spirocyclopropyl-5,6,8,9,10,11-hexahydro-3,8,11-triaza-benzo[a]fluoren-7-one] | 27 nM | 27 nM
2 | O=C1NC2(CC2)Cc2[nH]c3c(c21)CCc1cnc(-c2ccc(Oc4ccc(F)cc4F)nc2)cc1-3 [Example 95, 2-(1-Amino-cyclopropylmethyl)-8-[6-(2,4-difluoro-phenoxy)-pyridin-3-yl]-4,5-dihydro-1H-pyrrolo[2,3-f]isoquinoline-3-carboxylic acid lactam] |  | 100 nM
3 | N#Cc1cc(-c2cc3c(cn2)CCc2c-3[nH]c3c2C(=O)NCC32CC2)ccc1N1CCC(O)C1 (centres unmarked) [Example 312, 2-(3-Hydroxy-pyrrolidin-1-yl)-10-spirocyclopropyl-5-(7-oxo-6,7,8,9,10,11-hexahydro-5H-3,8,11-triaza-benzo[a]fluoren-2-yl)-benzonitrile] | 15 nM | 15 nM
4 | O=C1NC2(CCC2)Cc2[nH]c3c(c21)CCc1cnc(/C=C/c2ccccc2)cc1-3 [Example 4, 2-(1-Amino-cyclobutylmethyl)-8-((E)-styryl)-4,5-dihydro-1H-pyrrolo[2,3-f]isoquinoline-3-carboxylic acid lactame] |  | 65 nM
5 | CN(C)CCOc1ccc(-c2cc3c(cn2)CCc2c-3[nH]c3c2C(=O)NCC32CC2)cc1C#N [Example 308, 2-(2-Dimethylamino-ethoxy)-5-(7-oxo-10-spirocyclopropyl-6,7,8,9,10,11-hexahydro-5H-3,8,11-triaza-benzo[a]fluoren-2-yl)-benzonitrile] |  | 15 nM
6 | COc1ccc(-c2cc3c(cn2)CCc2c-3[nH]c3c2C(=O)NC2(CC2)C3)cn1 [Example 88, 2-(1-Amino-cyclopropylmethyl)-8-(6-methoxy-pyridin-3-yl)-4,5-dihydro-1H-pyrrolo[2,3-f]isoquinoline-3-carboxylic acid lactam] |  | 38 nM
7 | COc1ccc(-c2ncc3c(n2)-c2[nH]c4c(c2CC3)C(=O)NC2(CNC2)C4)cc1 [Example 18, 2-(3-Amino-azetidin-3-ylmethyl)-8-(4-methoxy-phenyl)-4,5-dihydro-1H-1,7,9-triaza-cyclopenta[a]naphthalene-3-carboxylic acid lactame hydrochloride] |  | 18 nM
8 | N#Cc1cc(-c2cc3c(cn2)CCc2c-3[nH]c3c2C(=O)NCC32CC2)ccc1N1CCOCC1 [Example 307, 2-Morpholin-4-yl-5-(7-oxo-10-spirocyclopropyl-6,7,8,9,10,11-hexahydro-5H-3,8,11-triaza-benzo[a]fluoren-2-yl)-benzonitrile] |  | 14 nM
9 | O=C1NC2(CC2)Cn2nc3c(c21)CCc1cnc(/C=C/c2ccccc2)cc1-3 [Example 10, 2-(1-Amino-cyclopropylmethyl)-8-((E)-styryl)-4,5-dihydro-2H-1,2,7-triaza-cyclopenta[a]naphthalene-3-carboxylic acid lactame] |  | > 10 nM
10 | O=C1NC2(CCC2)Cc2[nH]c3c(c21)CCc1cnc(-c2ccc(CN4CCOCC4)c(F)c2)cc1-3 [Example 110, 2-(1-Amino-cyclobutylmethyl)-8-(3-fluoro-4-morpholin-4-ylmethyl-phenyl)-4,5-dihydro-1H-pyrrolo[2,3-f]isoquinoline-3-carboxylic acid lactam] |  | 84 nM
11 | O=C1NC2(CC2)Cc2[nH]c3c(c21)CCc1cnc(-c2cccnc2)cc1-3 [Example 93, 2-(1-Amino-cyclopropylmethyl)-8-pyridin-3-yl-4,5-dihydro-1H-pyrrolo[2,3-f]isoquinoline-3-carboxylic acid lactam] |  | 51 nM
12 | COCc1ccc(CNC(=O)c2cccc(-c3cc4c(cn3)CCc3c-4[nH]c4c3C(=O)NC3(CC3)C4)c2)cc1 [Example 273] |  | 19 nM
13 | O=C1NC2(CNC2)Cc2[nH]c3c(c21)CCc1cnc(-c2cccc(F)c2)cc1-3 [Example 24, 2-(3-Amino-azetidin-3-ylmethyl)-8-(3-fluoro-phenyl)-4,5-dihydro-1H-pyrrolo[2,3-f]isoquinoline-3-carboxylic acid lactam hydrochloride] |  | 13 nM
14 | CN1CCN(c2ccc(-c3cc4c(cn3)CCc3c-4[nH]c4c3C(=O)NCC43CC3)cc2C#N)CC1 [Example 306, 2-(4-Methyl-piperazin-1-yl)-5-(7-oxo-10-spirocyclopropyl-6,7,8,9,10,11-hexahydro-5H-3,8,11-triaza-benzo[a]fluoren-2-yl)-benzonitrile] |  | 9 nM
15 | O=C1NC2(CC2)Cc2[nH]c3c(c21)CCc1cnc(-c2cncc(OC4CCOCC4)c2)cc1-3 [Example 94, 2-(1-Amino-cyclopropylmethyl)-8-[5-(tetrahydro-pyran-4-yloxy)-pyridin-3-yl]-4,5-dihydro-1H-pyrrolo[2,3-f]isoquinoline-3-carboxylic acid lactam] |  | 53 nM
16 | Cn1c2c(c3c1-c1nc(-c4cccc(F)c4)ncc1CC3)C(=O)NC1(CNC1)C2 [Example 27, 2-(3-Amino-azetidin-3-ylmethyl)-8-(3-fluoro-phenyl)-1-methyl-4,5-dihydro-1H-1,7,9-triaza-cyclopenta[a]naphthalene-3-carboxylic acid lactam hydrochloride] |  | 43 nM
17 | COc1ccc(CNC(=O)c2cccc(-c3cc4c(cn3)CCc3c-4[nH]c4c3C(=O)NC3(CC3)C4)c2)cn1 [Example 274] |  | 16 nM
18 | Cc1cncc(-c2cc3c(cn2)CCc2c-3[nH]c3c2C(=O)NC2(CC2)C3)c1 [Example 84, 2-(1-Amino-cyclopropylmethyl)-8-(5-methyl-pyridin-3-yl)-4,5-dihydro-1H-pyrrolo[2,3-f]isoquinoline-3-carboxylic acid lactam] |  | 39 nM
19 | N#Cc1cc(-c2cc3c(cn2)CCc2c-3[nH]c3c2C(=O)NCC32CC2)ccc1OCCN1CCOCC1 [Example 305, 2-(2-Morpholin-4-yl-ethoxy)-5-(7-oxo-10-spirocyclopropyl-6,7,8,9,10,11-hexahydro-5H-3,8,11-triaza-benzo[a]fluoren-2-yl)-benzonitrile] |  | 12 nM
20 | O=C1NC2(CCC2)Cc2[nH]c3c(c21)CCc1cnc(-c2ccc(OC4CCOCC4)nc2)cc1-3 [Example 108, 2-(1-Amino-cyclobutylmethyl)-8-[6-(tetrahydro-pyran-4-yloxy)-pyridin-3-yl]-4,5-dihydro-1H-pyrrolo[2,3-f]isoquinoline-3-carboxylic acid lactam] |  | 49 nM
21 | O=C1NC2(CC2)Cc2[nH]c3c(c21)CCc1cnc(-c2ccc(N4CCCCC4)nc2)cc1-3 [Example 83, 2-(1-Amino-cyclopropylmethyl)-8-(3,4,5,6-tetrahydro-2H-[1,2′]bipyridinyl-5′-yl)-4,5-dihydro-1H-pyrrolo[2,3-f]isoquinoline-3-carboxylic acid lactam] |  | 73 nM
22 | COCCOc1ccc(-c2cc3c(cn2)CCc2c-3[nH]c3c2C(=O)NCC32CC2)cc1C#N [Example 309, 2-(2-Methoxy-ethoxy)-5-(7-oxo-10-spirocyclopropyl-6,7,8,9,10,11-hexahydro-5H-3,8,11-triaza-benzo[a]fluoren-2-yl)-benzonitrile] |  | 20 nM
23 | CN1CC2(CNC(=O)c3c2[nH]c2c3CCc3cnc(-c4ccc(C(F)(F)F)nc4)cc3-2)C1 [Example 168, 2-(3-Aminomethyl-1-methyl-azetidin-3-yl)-8-(6-trifluoromethyl-pyridin-3-yl)-4,5-dihydro-1H-pyrrolo[2,3-f]isoquinoline-3-carboxylic acid lactam] |  | 14 nM
24 | COc1cncc(-c2cc3c(cn2)CCc2c-3[nH]c3c2C(=O)NC2(CC2)C3)c1 [Example 87, 2-(1-Amino-cyclopropylmethyl)-8-(5-methoxy-pyridin-3-yl)-4,5-dihydro-1H-pyrrolo[2,3-f]isoquinoline-3-carboxylic acid lactam] |  | 42 nM
25 | COc1ccc(-c2cc3c(cn2)CCc2c-3nn3c2C(=O)NC2(CN(C(C)=O)C2)C3)cc1 [Example 12, 2-(1-Acetyl-3-amino-azetidin-3-ylmethyl)-8-(4-methoxy-phenyl)-4,5-dihydro-2H-1,2,7-triaza-cyclopenta[a]naphthalene-3-carboxylic acid lactame] |  | > 10 nM
26 | O=C1NC2(CC2)Cc2[nH]c3c(c21)CCc1cnc(-c2cncc(F)c2)cc1-3 [Example 89, 2-(1-Amino-cyclopropylmethyl)-8-(5-fluoro-pyridin-3-yl)-4,5-dihydro-1H-pyrrolo[2,3-f]isoquinoline-3-carboxylic acid lactam] |  | 79 nM
27 | Cn1c2c(c3c1C1(CNC1)CNC3=O)CCc1cnc(-c3ccc(C(F)(F)F)nc3)cc1-2 [Example 169, 2-(3-Aminomethyl-azetidin-3-yl)-8-(6-trifluoromethyl-pyridin-3-yl)-1-methyl-4,5-dihydro-1H-pyrrolo[2,3-f]isoquinoline-3-carboxylic acid lactam hydrochloride] |  | 93 nM
28 | O=C(NCc1ccccc1)c1cccc(-c2cc3c(cn2)CCc2c-3[nH]c3c2C(=O)NC2(CC2)C3)c1 [Example 276, 2-(1-Amino-cyclopropylmethyl)-8-(3-benzylcarbamoyl)-phenyl-4,5-dihydro-1H-pyrrolo[2,3-f]isoquinoline-3-carboxylic acid lactam] |  | 11 nM
29 | O=C1NC2(CNC2)Cc2[nH]c3c(c21)CCc1cnc(-c2cccc(F)c2)nc1-3 [Example 26, 2-(3-Amino-azetidin-3-ylmethyl)-8-(3-fluoro-phenyl)-4,5-dihydro-1H-1,7,9-triaza-cyclopenta[a]naphthalene-3-carboxylic acid lactam hydrochloride] |  | 15 nM
30 | O=C1NC2(CC2)Cc2[nH]c3c(c21)CCc1cnc(-c2ccc(OC4CCOCC4)nc2)cc1-3 [Example 96, 2-(1-Amino-cyclopropylmethyl)-8-[6-(tetrahydro-pyran-4-yloxy)-pyridin-3-yl]-4,5-dihydro-1H-pyrrolo[2,3-f]isoquinoline-3-carboxylic acid lactam] |  | 45 nM
